Measurements from PMC12191924, “A new naphthalene-based fluorogenic substrate for cytochrome P450 4A11” (Biochemical Journal, 2025).

Biological target: T1, pooled human liver microsome (HLM) preparations (Homo sapiens, UniProt Q02928)
T1 sequence (Q02928 5-519): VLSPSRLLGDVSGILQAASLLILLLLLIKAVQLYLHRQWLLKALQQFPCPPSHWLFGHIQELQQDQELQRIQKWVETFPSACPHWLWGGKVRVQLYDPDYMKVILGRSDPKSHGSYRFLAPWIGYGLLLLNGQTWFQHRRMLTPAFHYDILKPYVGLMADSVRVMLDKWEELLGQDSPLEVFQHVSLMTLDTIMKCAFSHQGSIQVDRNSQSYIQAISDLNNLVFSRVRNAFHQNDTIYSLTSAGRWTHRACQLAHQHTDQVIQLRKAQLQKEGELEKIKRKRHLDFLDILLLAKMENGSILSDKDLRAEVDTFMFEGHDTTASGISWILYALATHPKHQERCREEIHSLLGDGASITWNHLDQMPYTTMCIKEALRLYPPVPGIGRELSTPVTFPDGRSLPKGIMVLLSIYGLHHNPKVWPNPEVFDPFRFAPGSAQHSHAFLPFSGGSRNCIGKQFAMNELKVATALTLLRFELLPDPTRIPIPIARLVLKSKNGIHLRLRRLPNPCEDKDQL
Test: Inhibition of MONACRA demethylation in pooled HLM preparations
Assay type: biochemical
Details: all studied HLM samples; from inhibitory analysis with epalrestat
Text: To probe the role of CYP4A11 and CYP1A2 in MONACRA metabolism by HLM, we employed inhibitory analysis with the use of epalrestat as a specific inhibitor of CYP4A11 [22] and fluvoxamine as a CYP1A2 inhibitor [37]. We explored the effect of the inhibitors on the activity of recombinant CYP1A2 and CYP4A11, as well as the activity of six different preparations of HLM (preparation X347 was not available at the time of the study).
Figure 12: Effect of epalrestat (A) and fluvoxamine (B) on 3-(6-methoxynaphthalen-2-yl)acrylic acid (MONACRA) demethylation by recombinant CYP1A2 (black) and CYP4A11 (red) and three pooled human liver microsome (HLM) preparations: X263 (green), DNJ (blue), and WGP (brown). Solid lines represent the approximation of the datasets by eqn 1 (in the instances of pure inhibition) or a combination of two hyperbolic equations (in the cases of activation or combined inhibition and activation). All experiments were carried out at 150 µM MONACRA concentration. The datasets shown in the graphs represent the averages of the results of four (fluvoxamine) or two (epalrestat) individual experiments.
This study used preparations of pooled HLMs from 50, 150, or 200 donors (mixed gender). The preparations CDN, DNJ, and WGP were INVITROCYP 150-Donor Human Liver Microsomes obtained from BioIVT Corporation (Westbury, NY). Lot EGW is INVITROCYP M-Class 50-Donor HLM procured from the same company. Lots 1,910,096 and 1,210,347 were XTreme 200 Mixed Gender HLM (200 donors) purchased from XenoTech LLC (Kansas City, KS), currently a part of BioIVT. Lot 2,110,263 corresponds to mixed gender HLM from 50 donors from the same company. These lots are referred to herein as X096, X347, and X263, respectively. The supplier of the HLM preparations used in our studies, BioIVT Corporation, has declared to adhere to the regulations of the Department of Health and Human Services for the protection of human subjects (45 CFR §46.116 and §46.117) and Good Clinical Practice, (ICH E6) in obtaining the samples of human tissues used for producing the preparations of human subcellular fractions available from these companies.
Inhibition of MONACRA metabolism by epalrestat and fluvoxamine was studied using the high-throughput assay described above. The substrate concentration was kept constant at 150 µM. Each column of the well plate comprised eight wells with different concentrations of inhibitor complemented with two wells with no inhibitor added (100% activity samples) and two wells with no inhibitor and no NADPH added (‘blank’ samples). […] The fractional inhibition at each inhibitor concentration was determined from the ratio of the reaction rate in the presence of an inhibitor to the rate observed at no inhibitor added. The resulting dependence of the fractional inhibition on the inhibitor concentration was fitted to a four-parameter logistic equation (Hill equation):
(1) FI=v0−vi/v0=Amax[I]^N/IC50+[I]^N
In this equation, F I and vi are the fractional inhibition and the reaction velocity observed at inhibitor concentration [I], v0 is the reaction rate at no inhibitor added, and A max is the maximal amplitude of inhibition. IC 50 is the concentration of inhibitor at which the inhibition reaches 50% of its maximal amplitude (A max), and N is the Hill coefficient.

- share of MONACRA demethylation for which CYP4A11 is responsible: > 93%
SMILES: COc1ccc2cc(C=CC(=O)O)ccc2c1 [MONACRA, 3-(6-methoxynaphthalen-2-yl)acrylic acid]
